Data set [1] can be described thus: Storage at ambient conditions (form conversion). In kind it is physicochemical. As to conditions: stored at ambient conditions.
Data set [2] is described as follows: Moisture balance / vapor sorption (hygroscopicity). The note with it: for relative humidity by which the material fully re-hydrates: after drying to 5% relative humidity; for phase post vapor sorption experiment: based on XRPD results; for hygroscopicity: 5% to 95% relative humidity; for relative humidity above which the material is hygroscopic: vapor sorption curve; for sorbed water retained: upon drying back down to ambient relative humidity. In kind it is physicochemical. Here is the method: Moisture balance data was collected using a VTI SGA 100 or SGA CX symmetrical vapor sorption analyzer. Relative humidity was varied in increments or 5%, starting at 5% relative humidity thereby increasing to 95% relative humidity, and then undergoing a drying cycle back to 5% relative humidity. Equilibrium criteria was set at 0.01% weight change in 1 minute with a max equilibrium time of 180 minutes. Approximately 1-15 mg of sample was used.

Data set [3] in a line: Exposure to 95% relative humidity chamber/jar, then XRPD. Format: physicochemical. Here is the method: The DSC curve indicates a broad endotherm around 150° C. (attributed to desolvation), and one sharp endotherm around 193° C. (attributed to a melt). The TG curve indicates a 5.0% weight loss up to 175° C.
The phosphate salt Form D material was generated from desolvating Form C, and a representative XRPD pattern is shown in FIG. 34. The sample appears to be crystalline with an irregular morphology. The DSC curve indicates a sharp endotherm around 193° C. (attributed to a melt). […] The material appears to retain this sorbed water upon drying down to 15% relative humidity; however, upon reaching 5% relative humidity the material losses all of its sorbed water and returns to dry weight.

The nature of data set [4]: Chemical and physical solid state stability on storage. As to conditions: for form change on storage: up to 4 months (phosphate salt up to 6 weeks).
Experimental: (§1) Chemical and physical stability was initiated on these forms and samples were stored at 60° C., 40° C./75% RH, 25° C./60% RH, and 5° C.
The conditions of data set [5]: 4 months.
Experimental: as §1
Where [6] appears, read: vapor sorption, as high as 95% relative humidity.

Consider 16 compounds from patent US20150299182A1, “CRYSTALLINE FORMS OF (1S)-1-[5-(AMINO)-1,2,4-THIADIAZOL-3-YL]ETHANE-1,2-DIOL” (Array BioPharma Inc., priority 2012, published 2015).

“Also recorded” adds a separate entry of the source. Where a name gives a salt, the structure may show the parent alone.

Consider `Cc1ncccc1Oc1cc(Sc2ccccn2)cnc1Nc1nc([C@H](O)CO)ns1` [Form G, (1S)-1-[5-({3-[(2-methylpyridin-3-yl)oxy]-5-(pyridin-2-ylsulfanyl)pyridin-2-yl}amino)-1,2,4-thiadiazol-3-yl]ethane-1,2-diol], for which the “form conversion on storage” value in data set [1] is “readily convert to Form F”.

`Cc1ncccc1Oc1cc(Sc2ccccn2)cnc1Nc1nc([C@H](O)CO)ns1` [phosphate salt Form A, (1S)-1-[5-({3-[(2-methylpyridin-3-yl)oxy]-5-(pyridin-2-ylsulfanyl)pyridin-2-yl}amino)-1,2,4-thiadiazol-3-yl]ethane-1,2-diol]: in data set [2], the “relative humidity by which the material fully re-hydrates” value is reported as at most 55 % relative humidity and the “phase post vapor sorption experiment” value was “remained unchanged”. Further, the hygroscopicity result in data set [2] (vapor sorption) is “non-hygroscopic”. Moreover, in data set [2] (setting [6]), the weight change came to 0.8%.

With `Cc1ncccc1Oc1cc(Sc2ccccn2)cnc1Nc1nc([C@H](O)CO)ns1` [HCl salt Form A, (1S)-1-[5-({3-[(2-methylpyridin-3-yl)oxy]-5-(pyridin-2-ylsulfanyl)pyridin-2-yl}amino)-1,2,4-thiadiazol-3-yl]ethane-1,2-diol], in data set [2], the “phase post vapor sorption experiment” value was “converted to an amorphous phase” and the “relative humidity above which the material is hygroscopic” value is reported as “above 55 % relative humidity”. Moreover, the hygroscopicity entry in data set [2] (vapor sorption) is on record as “hygroscopic”. The weight change in data set [2] (setting [6]) stood at 9%.

Take `Cc1ncccc1Oc1cc(Sc2ccccn2)cnc1Nc1nc([C@H](O)CO)ns1` [phosphate salt Form C, (1S)-1-[5-({3-[(2-methylpyridin-3-yl)oxy]-5-(pyridin-2-ylsulfanyl)pyridin-2-yl}amino)-1,2,4-thiadiazol-3-yl]ethane-1,2-diol]: the “stability of the phase as a function of relative humidity” value (“stability … of relative humidity” below) in data set [2] is given as “unstable as a function of ambient relative humidity”. In data set [3], the “form after exposure to 95% relative humidity” value is “converted to Form A”.

In the case of `Cc1ncccc1Oc1cc(Sc2ccccn2)cnc1Nc1nc([C@H](O)CO)ns1` [HCl salt Form B, (1S)-1-[5-({3-[(2-methylpyridin-3-yl)oxy]-5-(pyridin-2-ylsulfanyl)pyridin-2-yl}amino)-1,2,4-thiadiazol-3-yl]ethane-1,2-diol], in data set [2], the “phase post vapor sorption experiment” value is given as “converted to an amorphous phase” and the “relative humidity above which the material is hygroscopic” value is given as “above 75 % relative humidity”. The hygroscopicity result in data set [2] (vapor sorption) is reported as “hygroscopic”. Moreover, the weight change in data set [2] (setting [6]) was found to be 20%.

For `Cc1ncccc1Oc1cc(Sc2ccccn2)cnc1Nc1nc([C@H](O)CO)ns1` [MSA salt Form C, (1S)-1-[5-({3-[(2-methylpyridin-3-yl)oxy]-5-(pyridin-2-ylsulfanyl)pyridin-2-yl}amino)-1,2,4-thiadiazol-3-yl]ethane-1,2-diol], in data set [2], the “phase post vapor sorption experiment” value is “remained unchanged”, the sorbed water retained is reported as 2-3% and the “relative humidity above which the material is hygroscopic” value is listed as “above 75 % relative humidity”. The hygroscopicity result in data set [2] (vapor sorption) is recorded as “hygroscopic”. The compound also came in with a weight change in data set [2] (setting [6]) of 18%.

Regarding `Cc1ncccc1Oc1cc(Sc2ccccn2)cnc1Nc1nc([C@H](O)CO)ns1` [MSA salt Form B, (1S)-1-[5-({3-[(2-methylpyridin-3-yl)oxy]-5-(pyridin-2-ylsulfanyl)pyridin-2-yl}amino)-1,2,4-thiadiazol-3-yl]ethane-1,2-diol], in data set [2], the “stability … of relative humidity” value was “unstable as a function of relative humidity”, the “phase post vapor sorption experiment” value is given as “converted to Form C”, the sorbed water retained is on record as 2-3% and the “relative humidity above which the material is hygroscopic” value is recorded as “above 65 % relative humidity”. For the same compound, the hygroscopicity result in data set [2] (vapor sorption) was “hygroscopic”. Besides, the weight change in data set [2] (setting [6]) turned out to be 16.5%.

As for `Cc1ncccc1Oc1cc(Sc2ccccn2)cnc1Nc1nc([C@H](O)CO)ns1` [fumarate co-crystal Form A, (1S)-1-[5-({3-[(2-methylpyridin-3-yl)oxy]-5-(pyridin-2-ylsulfanyl)pyridin-2-yl}amino)-1,2,4-thiadiazol-3-yl]ethane-1,2-diol], the “form change on storage” value in data set [4] (40° C./75% RH) and in data set [4] (60° C.) was “no form change” each time. Besides, the “phase post vapor sorption experiment” value in data set [2] is “remained unchanged”. The hygroscopicity entry in data set [2] (vapor sorption) is recorded as “non-hygroscopic”. In data set [2] (setting [6]), this compound showed a weight change of 0.075%.

As to `Cc1ncccc1Oc1cc(Sc2ccccn2)cnc1Nc1nc([C@H](O)CO)ns1` [Form A, (1S)-1-[5-({3-[(2-methylpyridin-3-yl)oxy]-5-(pyridin-2-ylsulfanyl)pyridin-2-yl}amino)-1,2,4-thiadiazol-3-yl]ethane-1,2-diol], in data set [2], the “phase post vapor sorption experiment” value is on record as “remained unchanged”. Also, the hygroscopicity result in data set [2] (vapor sorption) is given as “non-hygroscopic”.

As to `Cc1ncccc1Oc1cc(Sc2ccccn2)cnc1Nc1nc([C@H](O)CO)ns1` [Amorphous AMG151, (1S)-1-[5-({3-[(2-methylpyridin-3-yl)oxy]-5-(pyridin-2-ylsulfanyl)pyridin-2-yl}amino)-1,2,4-thiadiazol-3-yl]ethane-1,2-diol], the “phase post vapor sorption experiment” value in data set [2] is reported as “remained unchanged”. In addition, the hygroscopicity entry in data set [2] (vapor sorption) is reported as “hygroscopic”.

For the compound `Cc1ncccc1Oc1cc(Sc2ccccn2)cnc1Nc1nc([C@H](O)CO)ns1` [phosphate salt Form D, (1S)-1-[5-({3-[(2-methylpyridin-3-yl)oxy]-5-(pyridin-2-ylsulfanyl)pyridin-2-yl}amino)-1,2,4-thiadiazol-3-yl]ethane-1,2-diol], in data set [2], the “stability … of relative humidity” value is “unstable as a function of ambient relative humidity”, the “phase post vapor sorption experiment” value is “remained unchanged” and the “relative humidity above which the material is hygroscopic” value is reported as “above 55 % relative humidity”. Further, in data set [2] (around 75% relative humidity (appears to convert to a mono-hydrate)), the weight change came to 3.0%. Moreover, the hygroscopicity result in data set [2] (vapor sorption) is recorded as “hygroscopic”. The “form after exposure to 95% relative humidity” value in data set [3] is on record as “convert to Form E”.

As for `Cc1ncccc1Oc1cc(Sc2ccccn2)cnc1Nc1nc([C@H](O)CO)ns1` [phosphate salt, (1S)-1-[5-({3-[(2-methylpyridin-3-yl)oxy]-5-(pyridin-2-ylsulfanyl)pyridin-2-yl}amino)-1,2,4-thiadiazol-3-yl]ethane-1,2-diol], in data set [4] (40° C./75% RH), the time found stable entry was “up to 6 weeks” and the “form change on storage” value was “no form change”. Besides, in data set [4] (60° C.), the time found stable entry is recorded as “up to 6 weeks” and the “form change on storage” value is on record as “no form change”.

Turning to `Cc1ncccc1Oc1cc(Sc2ccccn2)cnc1Nc1nc([C@H](O)CO)ns1` [phosphate salt Form B, (1S)-1-[5-({3-[(2-methylpyridin-3-yl)oxy]-5-(pyridin-2-ylsulfanyl)pyridin-2-yl}amino)-1,2,4-thiadiazol-3-yl]ethane-1,2-diol], in data set [2], the “stability … of relative humidity” value is on record as “unstable as a function of ambient relative humidity” and the “phase post vapor sorption experiment” value is “converted to Form A”. Moreover, the “weight loss upon drying” value in data set [2] (upon drying down to 5% relative humidity) was found to be 8.5%. The hygroscopicity result in data set [2] (vapor sorption) is reported as “slightly hygroscopic”. Further, the weight change in data set [2] (setting [6]) was 3.5%.

For the compound `Cc1ncccc1Oc1cc(Sc2ccccn2)cnc1Nc1nc([C@H](O)CO)ns1` [Form F, (1S)-1-[5-({3-[(2-methylpyridin-3-yl)oxy]-5-(pyridin-2-ylsulfanyl)pyridin-2-yl}amino)-1,2,4-thiadiazol-3-yl]ethane-1,2-diol], the “form change on storage” value is “no form change” in data set [4] (40° C./75% RH) and “no form change” in data set [4] (60° C., listed as free base form F). Besides, in data set [2], the “phase post vapor sorption experiment” value was “remained unchanged”. Further, the hygroscopicity entry in data set [2] (vapor sorption) is reported as “non-hygroscopic”. Moreover, the “time found chemically stable” value in data set [5] is reported as “up to 4 months”.

On to `Cc1ncccc1Oc1cc(Sc2ccccn2)cnc1Nc1nc([C@H](O)CO)ns1` [Hydrate Form C, (1S)-1-[5-({3-[(2-methylpyridin-3-yl)oxy]-5-(pyridin-2-ylsulfanyl)pyridin-2-yl}amino)-1,2,4-thiadiazol-3-yl]ethane-1,2-diol], for which the “form change on storage” value is “no form change” in data set [4] (40° C./75% RH) and “converted to Form A” in data set [4] (60° C., listed as free base mono-hydrate). In data set [4] (60° C.), the “time after which conversion to Form A was found” value turned out to be 2 weeks. The “phase post vapor sorption experiment” value in data set [2] is recorded as “remained unchanged”. The compound also yielded a wt change in data set [2] (from 5% to 95% relative humidity) below 0.5%. The hygroscopicity entry in data set [2] (vapor sorption) is reported as “non hygroscopic; also recorded: non-hygroscopic”. In data set [2] (setting [6]), the weight change was found to be 0.25%.

Turning to `Cc1ncccc1Oc1cc(Sc2ccccn2)cnc1Nc1nc([C@H](O)CO)ns1` [phosphate salt Form E, (1S)-1-[5-({3-[(2-methylpyridin-3-yl)oxy]-5-(pyridin-2-ylsulfanyl)pyridin-2-yl}amino)-1,2,4-thiadiazol-3-yl]ethane-1,2-diol], in data set [2], the “stability … of relative humidity” value was “unstable as a function of ambient relative humidity”, the “relative humidity by which the material fully re-hydrates” value is given as at most 65 % relative humidity and the “relative humidity above which the material is hygroscopic” value is recorded as “Above 65 % relative humidity”. The hygroscopicity result in data set [2] (vapor sorption) is reported as “slightly hygroscopic”.
